Experimental data reported in paper PMC8016998, “Identification of potential therapeutic antimicrobial peptides against Acinetobacter baumannii in a mouse model of pneumonia” (Scientific Reports, 2021).
Read-outs that look alike come from different tables or passages of the source. Values belong to the substance of their own block, whether it stands above or below them. No end group written: not given here.

Assays:
[1] = test system: A. baumannii laboratory strains (ATCC strains 17,978 and 19,606); format: cell-based, Acinetobacter baumannii; settings: disc diffusion; activity = inhibition zone diameter ≥ 10 mm
Experimental: The antimicrobial activities of 58 AMPs were screened against A. baumannii laboratory strains (ATCC strains 17,978 and 19,606) in vitro using a disc diffusion assay (Supplementary Table 1).
The antimicrobial activity against Acinetobacter baumannii were determined by a inhibition zone
assay, performed as previous described1. The AMPs with an inhibition zone diameter ≥ 10 mm were
determined as the AMPs with antimicrobial activity.

LD50 (preliminary data) = format: in vivo; settings: intratracheal administration
[2] = test system: MDRAB clinical strain U80; format: cell-based, Acinetobacter baumannii
Experimental: (§1) MBC were determined by extending the MIC procedure in sterilized 96-well polypropylene microtiter plates according to the broth microdilution guidelines of the Clinical and Laboratory Standards Institute with some modification[47]. […] In addition, 10 µL was drawn from each well with no visible turbidity onto LB agar plates and incubated for 24 h at 37 °C. The lowest concentration showing no visible growth on agar subculture was used as the MBC value. All experiments were performed in triplicate.

[3] = test system: MDRAB clinical strain AS40; format: cell-based, Acinetobacter baumannii
Experimental: as §1

[4] = test system: MDRAB clinical strain L87; format: cell-based, Acinetobacter baumannii
[5] = test system: MDRAB clinical strain AN10; format: cell-based, Acinetobacter baumannii
Experimental: as §1

[6] = test system: MDRAB clinical strain AF11; format: cell-based, Acinetobacter baumannii
Experimental: as §1

MDRAB clinical strains = format: cell-based, Acinetobacter baumannii
Experimental: as §1

[7] = test system: MDRAB clinical strain AE6; format: cell-based, Acinetobacter baumannii
Experimental: as §1

[8] = test system: MDRAB clinical strain W11; format: cell-based, Acinetobacter baumannii
Experimental: as §1

[9] = test system: MDRAB clinical strain O59; format: cell-based, Acinetobacter baumannii
Experimental: as §1

[10] = test system: MDRAB clinical strain U95; format: cell-based, Acinetobacter baumannii
Experimental: as §1

[11] = test system: MDRAB clinical strain AO80; format: cell-based, Acinetobacter baumannii
Experimental: as §1

[12] = test system: Acinetobacter baumannii 17,978; format: cell-based;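 also: CLSI broth microdilution in 96-well polypropylene plates, MBC taken as lowest concentration giving no growth when clear wells were subcultured on LB agar for 24 h at 37 °C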
[13] = test system: MDRAB clinical strain AZ93; format: cell-based, Acinetobacter baumannii
Experimental: as §1

[14] = test system: MDRAB clinical strain D29; format: cell-based, Acinetobacter baumannii
[15] = test system: MDRAB clinical strain AK61; format: cell-based, Acinetobacter baumannii
[16] = test system: MDRAB clinical strain AL87; format: cell-based, Acinetobacter baumannii
Experimental: as §1

[17] = test system: MDRAB clinical strain AF12; format: cell-based, Acinetobacter baumannii
Experimental: as §1

[18] = test system: MDRAB clinical strain J49; format: cell-based, Acinetobacter baumannii
Experimental: as §1

[19] = test system: MDRAB clinical strain AG51; format: cell-based, Acinetobacter baumannii
Experimental: as §1

[20] = test system: Acinetobacter baumannii 19,606; format: cell-based
Experimental: as §1

[21] = test system: MDRAB clinical strain AK29; format: cell-based, Acinetobacter baumannii
MDRAB clinical strain K2 = format: cell-based, Acinetobacter baumannii
[22] = test system: MDRAB clinical strain Y92; format: cell-based, Acinetobacter baumannii
[23] = test system: MDRAB clinical strain AF93; format: cell-based, Acinetobacter baumannii
Experimental: as §1

[24] = test system: MDRAB clinical strain AE5; format: cell-based, Acinetobacter baumannii
Experimental: as §1

[25] = 10 µL from wells without turbidity onto LB agar, 24 h at 37 °C, triplicate

Substance: AKKVFKRLG IGKFLHSAKKF-NH2 [HPMA, antimicrobial peptide]
antimicrobial activity against Acinetobacter baumannii (inhibition zone assay) [1]: without antimicrobial activity (The antimicrobial peptides without antimicrobial activity)

Substance: AKKVFKRLGIGAVLKVLTTG [HPME, antimicrobial peptide]
antimicrobial activity against Acinetobacter baumannii (inhibition zone assay) [1]: without antimicrobial activity (The antimicrobial peptides without antimicrobial activity)

Substance: FIHHIIGGLFSAGKAIHRLIRRRRR [TP4]
LD50 (LD50 (preliminary data)): 10 to 20 mg/kg

Substance: GLLRKGGEKIGEKLKKIGQKIKNFFQKLVPQPEQ [CRAMP, antimicrobial peptide]
antimicrobial activity against Acinetobacter baumannii (inhibition zone assay) [1]: without antimicrobial activity (The antimicrobial peptides without antimicrobial activity)

MIC ([2]; 24 h): 16 µg/mL
MIC ([3]; 24 h): 8 µg/mL
MIC ([4]; 24 h): 16 µg/mL
MIC ([5]; 24 h): 8 µg/mL
MIC ([6]; 24 h): 8 µg/mL
MIC (MDRAB clinical strains; 24 h): 8 to 16 µg/mL
MIC ([7]; 24 h): 8 µg/mL
MIC ([8]; 24 h): 16 µg/mL
MIC ([9]; 24 h): 16 µg/mL
MIC ([10]; 24 h): 16 µg/mL
MIC ([11]; 24 h): 8 µg/mL
MIC ([12]; 17,978, 24 h): 32 µg/mL
MIC ([13]; 24 h): 8 µg/mL
MIC ([14]; 24 h): 16 µg/mL
MIC ([15]; 24 h): 8 µg/mL
MIC ([16]; 24 h): 8 µg/mL
MIC ([17]; 24 h): 8 µg/mL
MIC ([18]; 24 h): 8 µg/mL
MIC ([19]; 24 h): 8 µg/mL
MIC ([20]; 19,606, 24 h): 16 µg/mL
MIC ([21]; 24 h): 8 µg/mL
MIC (MDRAB clinical strain K2; 24 h): 16 µg/mL
MIC ([22]; 24 h): 8 µg/mL
MIC ([23]; 24 h): 8 µg/mL
MIC ([24]; 24 h): 16 µg/mL
Substance: GYNYAKKLANLAKKFANALW-NH2 [GW-H1a]
MBC ([2]; 24 h): 32 µg/mL
MBC ([3]; 24 h): 8 µg/mL
MBC ([4]; 24 h): 32 µg/mL
MBC ([5]; 24 h): 8 µg/mL
MBC ([6]; 24 h): 16 µg/mL
MBC (MDRAB clinical strains; 24 h): 8 to 32 µg/mL
MBC ([7]; 24 h): 16 µg/mL
MBC ([8]; 24 h): 16 µg/mL
MBC ([9]; 24 h): 32 µg/mL
MBC ([10]; 24 h): 32 µg/mL
MBC ([11]; 24 h): 8 µg/mL
MBC ([12]; 17,978, 24 h): 32 µg/mL
MBC ([13]; 24 h): 8 µg/mL
MBC ([14]; 24 h): 32 µg/mL
MBC ([15]; 24 h): 8 µg/mL
MBC ([16]; 24 h): 8 µg/mL
MBC ([17]; 24 h): 16 µg/mL
MBC ([18]; 24 h): 8 µg/mL
MBC ([19]; 24 h): 8 µg/mL
MBC ([20]; 19,606, 24 h): 16 µg/mL
MBC ([21]; 24 h): 8 µg/mL
MBC (MDRAB clinical strain K2; 24 h): 16 µg/mL
MBC ([22]; 24 h): 8 µg/mL
MBC ([23]; 24 h): 8 µg/mL
MBC ([24]; 24 h): 16 µg/mL

Substance: ILGPVLSMVGSALGGLIKKI-NH2 [Maximin H2]
MIC ([2]; strain U80, broth microdilution, LB, 24 h 37 °C): 128 µg/mL
MBC ([2]; strain U80, subculture on LB agar, 24 h 37 °C): 128 µg/mL
MIC ([3]; strain AS40, broth microdilution, LB, 24 h 37 °C): 64 µg/mL
MBC ([3]; strain AS40, subculture on LB agar, 24 h 37 °C): 64 µg/mL
MIC ([4]; strain L87, broth microdilution, LB, 24 h 37 °C): 128 µg/mL
MBC ([4]; strain L87, subculture on LB agar, 24 h 37 °C): 128 µg/mL
MIC ([5]; strain AN10, broth microdilution, LB, 24 h 37 °C): 64 µg/mL
MBC ([5]; strain AN10, subculture on LB agar, 24 h 37 °C): 64 µg/mL
MIC ([6]; strain AF11, broth microdilution, LB, 24 h 37 °C): 128 µg/mL
MBC ([6]; strain AF11, subculture on LB agar, 24 h 37 °C): 128 µg/mL
MIC (MDRAB clinical strains; range over MDRAB clinical strains (details in Supplementary Table 2), broth microdilution, LB, 24 h 37 °C): 16 to 128 µg/mL
MBC (MDRAB clinical strains; range over MDRAB clinical strains (details in Supplementary Table 2), subculture on LB agar, 24 h 37 °C): 16 to 128 µg/mL
MIC ([7]; strain AE6, broth microdilution, LB, 24 h 37 °C): 128 µg/mL
MBC ([7]; strain AE6, subculture on LB agar, 24 h 37 °C): 128 µg/mL
MIC ([8]; strain W11, broth microdilution, LB, 24 h 37 °C): 64 µg/mL
MBC ([8]; strain W11, subculture on LB agar, 24 h 37 °C): 128 µg/mL
MIC ([9]; strain O59, broth microdilution, LB, 24 h 37 °C): 128 µg/mL
MBC ([9]; strain O59, subculture on LB agar, 24 h 37 °C): 128 µg/mL
MIC ([10]; strain U95, broth microdilution, LB, 24 h 37 °C): 128 µg/mL
MBC ([10]; strain U95, subculture on LB agar, 24 h 37 °C): 128 µg/mL
MIC ([11]; strain AO80, broth microdilution, LB, 24 h 37 °C): 64 µg/mL
MBC ([11]; strain AO80, subculture on LB agar, 24 h 37 °C): 128 µg/mL
MBC [12, 25]: 128 µg/mL
MIC ([12]; broth microdilution (CLSI, modified), LB medium, 5 × 10^5 CFU/mL, 24 h at 37 °C, lowest concentration with no visible growth, triplicate): 64 µg/mL
MIC ([13]; strain AZ93, broth microdilution, LB, 24 h 37 °C): 64 µg/mL
MBC ([13]; strain AZ93, subculture on LB agar, 24 h 37 °C): 64 µg/mL
MIC ([14]; strain D29, broth microdilution, LB, 24 h 37 °C): 128 µg/mL
MBC ([14]; strain D29, subculture on LB agar, 24 h 37 °C): 128 µg/mL
MIC ([15]; strain AK61, broth microdilution, LB, 24 h 37 °C): 64 µg/mL
MBC ([15]; strain AK61, subculture on LB agar, 24 h 37 °C): 64 µg/mL
MIC ([16]; strain AL87, broth microdilution, LB, 24 h 37 °C): 64 µg/mL
MBC ([16]; strain AL87, subculture on LB agar, 24 h 37 °C): 64 µg/mL
MIC ([17]; strain AF12, broth microdilution, LB, 24 h 37 °C): 64 µg/mL
MBC ([17]; strain AF12, subculture on LB agar, 24 h 37 °C): 64 µg/mL
MIC ([18]; strain J49, broth microdilution, LB, 24 h 37 °C): 16 µg/mL
MBC ([18]; strain J49, subculture on LB agar, 24 h 37 °C): 16 µg/mL
MIC ([19]; strain AG51, broth microdilution, LB, 24 h 37 °C): 32 µg/mL
MBC ([19]; strain AG51, subculture on LB agar, 24 h 37 °C): 64 µg/mL
MBC [20, 25]: 32 µg/mL
MIC ([20]; broth microdilution (CLSI, modified), LB medium, 5 × 10^5 CFU/mL, 24 h at 37 °C, triplicate): 32 µg/mL
MIC ([21]; strain AK29, broth microdilution, LB, 24 h 37 °C): 32 µg/mL
MBC ([21]; strain AK29, subculture on LB agar, 24 h 37 °C): 32 µg/mL
MIC (MDRAB clinical strain K2; strain K2, broth microdilution, LB, 24 h 37 °C): 16 µg/mL
MBC (MDRAB clinical strain K2; strain K2, subculture on LB agar, 24 h 37 °C): 32 µg/mL
MIC ([22]; strain Y92, broth microdilution, LB, 24 h 37 °C): 64 µg/mL
MBC ([22]; strain Y92, subculture on LB agar, 24 h 37 °C): 128 µg/mL
MIC ([23]; strain AF93, broth microdilution, LB, 24 h 37 °C): 64 µg/mL
MBC ([23]; strain AF93, subculture on LB agar, 24 h 37 °C): 64 µg/mL
MIC ([24]; strain AE5, broth microdilution, LB, 24 h 37 °C): 64 µg/mL
MBC ([24]; strain AE5, subculture on LB agar, 24 h 37 °C): 128 µg/mL

Substance: KQFRIRVRV [Peptide 1029, antimicrobial peptide]
antimicrobial activity against Acinetobacter baumannii (inhibition zone assay) [1]: without antimicrobial activity (The antimicrobial peptides without antimicrobial activity)

Substance: KRFRIRVRV [Peptide 1037, antimicrobial peptide]
antimicrobial activity against Acinetobacter baumannii (inhibition zone assay) [1]: without antimicrobial activity (The antimicrobial peptides without antimicrobial activity)
